The subject of series [1] is L. amazonensis axenic amastigotes. The series is described as follows: alamarBlue viability / concentration-response assay, axenic amastigotes. It is filed as cell-based, Leishmania amazonensis. Conditions: 72 h, axenic amastigotes, read-out: EC50^72 h against L. amazonensis axenic amastigotes. The procedure:
(§1) Leishmania amazonensis axenic amastigotes (100 μL, 2×10^6 cells/mL) were added to 96-multiwell plates containing 100 μL of amastigote culture medium with an appropriate compound dilution series. 0.1% DMSO (no drug) served as a positive control (100%), and 5 μM amphotericin B served as a negative growth control (0%). Only internal wells were used to minimize edge effects from evaporation. Axenic amastigotes were incubated at 32° C. with a compound/drug for 72 h prior to measurement. Similarly, the cytotoxicity of each compound was determined against RAW 264.7 cells and HepG2 cell lines, following 72 h incubation at 37° C. (promastigotes at 26° C.).
(§2) 10% alamarBlue® (Thermo Fisher Scientific) was used to measure the growth of both parasite and mammalian cells. Conversion from a blue oxidized state to a pink reduced state was assessed visually at 6 hr. The fluorescence signal was measured with a BioTek Synergy H1 plate reader (530 nm excitation, 570 nm emission). For bioluminescence assays using L. amazonensisluc, relative luminescence units (RLU) were measured using Britelite Plus (PerkinElmer, USA). Luminescence produced by this luciferase reaction is proportional to the amount of luciferase-expressing, viable L. amazonensisluc. Following five-minute incubation at room temperature, the luminescence was measured with a BioTek Synergy H1 plate reader.
All experiments were conducted as three technical triplicates on the same plate, with at least three independent biological repeats of each plate performed. For all assays, percent growth was expressed as a proportion of the untreated (positive) control (i.e. 100%) and plotted against drug/compound concentration. The concentration was then log10 transformed and EC50 values were determined using nonlinear regression (sigmoidal dose-response/variable slope equation) in GraphPad Prism v5.0 (GraphPad Software, Inc., San Diego, CA).
To identify antileishmanial compounds, a microplate-based alamarBlue® assay was used to quickly triage the 400 drug-like compounds available in the MMV Pathogen Box collection. […] A three-step process was used to screen the Pathogen Box: 1) identify hits against axenic amastigotes, 2) confirm the inhibitory concentrations of these hits against axenic amastigotes, 3) evaluate hits for potency against intracellular parasites using fluorescence and bioluminescence-based intracellular assays. The MMV Pathogen Box resource was tested at two concentrations (5 μM and 1 μM, 72 h endpoint) on axenic amastigotes.
Hits were defined as compounds that, at a concentration of 1 μM, decreased the relative fluorescence intensity signal to ≤70% of that produced by parasites incubated in vehicle (0.06% DMSO) only (FIG. 9).
(In general: The colour change of resazurin is a common sign of viable cells or microbes.)

Series [2] in a line: Cytotoxicity, alamarBlue. It is filed as cell-based. To be noted: mouse, RAW 264.7 macrophage cells, read-out: CC50^72 h cytotoxicity (macrophage / mammalian cells). The procedure: as §1
as §2, with “reader. […]” for “reader.”

Series [3] has as its target T1, purified porcine tubulin (Sus scrofa, UniProt P02550+P02554).
T1 construct: purchased Cytoskeleton, Inc. T240
The series is described as follows: Tubulin polymerization turbidity assay, mammalian tubulin. It is filed as biochemical. The procedure: Tubulin polymerization assays were performed in 96-well half-area microplates (Costar) in a final volume of 100 μL. Briefly, Leishmanial or porcine tubulin (>99% pure, Cat. #T240, Cytoskeleton, Inc.) in 50 μL volume was pre-treated with drugs on ice for 5 minutes before adding 50 μL ice cold buffer, to provide a final concentration of 3 mg/ml tubulin in 80 mM PIPES pH 6.9, 2 mM MgCl2, 0.5 mM EGTA, 1 mM GTP, and 1% DMSO unless specified otherwise. The absorbance at 340 nm was recorded in a Synergy H1 microplate reader (BioTek) for up to 45 min at 37° C. (porcine tubulin) or 30° C. (L. tarentolae tubulin).
To determine the selectivity of MMV676477, purified porcine tubulin was exposed to a serial dilution of the drug (0 to 25 μM) and absorbance was measured at 340 nm over time. […] To ensure that the absorbance seen at 340 nm reflected microtubule formation and not precipitation, a fluorescent microtubule assembly assay was employed.

The test system of series [4] is blood-stage Trypanosoma brucei. The series is described as follows: CellTiter-Glo luminescent assay. It counts as cell-based. The procedure: The parasites were synchronized using sequential sorbitol lysis treatment, with experiments carried out at least one intra-erythrocytic cycle later. T. brucei single marker (SM) cells were maintained at log phase growth (<1.5×10^6 cells/mL) in HMI-19 media supplemented with 10% FBS (Gibco) and 2.5 μg/mL G418 (Life Technologies) at 37° C. and 5% CO2.
Compounds were tested against the blood-stage Trypanosoma brucei (48 hr endpoint) and intra-erythrocytic asexual stages Plasmodium falciparum (3D7) using CellTiter-Glo® luminescent and Malaria SYBR green I fluorescence (MSF) assays, respectively. Similar methodology will be used for future experiments.
MMV676477 was tested against several other parasites: the axenic amastigotes of Leishmania donovani and Leishmania tarentolae, blood-stage Plasmodium falciparum, and Trypanosoma brucei. The compound's activity was measured using alamarBlue®, Malaria SYBR green I fluorescence (MSF) and CellTiter-Glo® luminescent assays. […] In addition, MMV676477 has also been recently reported as having potent activity against Neospora caninum, Cryptosporidium parvum, Toxoplasma gondii, and Entamoeba histolytica.

“Also recorded” adds a separate entry of the source. Where two headings read alike, the source gives them in different places.

As a reminder, the EC50 is the concentration that produces a half-maximal response.

T1 sequence (P02550 whole entry): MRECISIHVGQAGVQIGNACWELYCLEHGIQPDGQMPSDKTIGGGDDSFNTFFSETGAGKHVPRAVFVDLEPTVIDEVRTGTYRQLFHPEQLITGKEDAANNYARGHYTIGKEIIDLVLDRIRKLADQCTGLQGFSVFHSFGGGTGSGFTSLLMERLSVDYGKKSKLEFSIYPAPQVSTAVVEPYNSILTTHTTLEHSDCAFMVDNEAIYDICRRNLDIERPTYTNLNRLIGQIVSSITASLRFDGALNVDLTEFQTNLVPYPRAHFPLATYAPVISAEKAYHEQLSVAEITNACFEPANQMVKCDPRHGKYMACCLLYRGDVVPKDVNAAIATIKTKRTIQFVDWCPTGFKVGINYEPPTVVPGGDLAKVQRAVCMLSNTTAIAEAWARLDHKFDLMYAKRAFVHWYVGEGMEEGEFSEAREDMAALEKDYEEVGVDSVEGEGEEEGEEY
T1 sequence (P02554 whole entry): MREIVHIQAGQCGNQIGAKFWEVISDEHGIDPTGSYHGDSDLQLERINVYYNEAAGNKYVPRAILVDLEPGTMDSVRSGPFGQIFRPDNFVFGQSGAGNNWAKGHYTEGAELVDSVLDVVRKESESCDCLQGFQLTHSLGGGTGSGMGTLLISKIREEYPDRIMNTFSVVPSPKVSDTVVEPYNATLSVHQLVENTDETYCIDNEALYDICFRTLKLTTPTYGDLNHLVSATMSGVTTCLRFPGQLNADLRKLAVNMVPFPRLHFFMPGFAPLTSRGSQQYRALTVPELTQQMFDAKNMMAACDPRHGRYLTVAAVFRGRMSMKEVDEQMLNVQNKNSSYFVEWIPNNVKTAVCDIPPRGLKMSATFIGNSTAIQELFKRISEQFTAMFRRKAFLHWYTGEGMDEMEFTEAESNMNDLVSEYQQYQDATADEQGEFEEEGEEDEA

As to `CCc1c(C)nc(-n2nc(C)cc2NC(=O)c2ccccc2SC)[nH]c1=O` [MMV676477, N-(1-(5-Ethyl-4-methyl-6-oxo-1,6-dihydropyrimidin-2-yl)-3-methyl-1H-pyrazol-5-yl)-2-(methylthio)benzamide], the EC50 in series [1] stood at 0.078 µM; in series [1] (Leishmania amazonensis), 0.079 µM; in series [3] (3 mg/ml tubulin, 1% DMSO, A340), 11 µM. Besides, the CC50 at 72 h in series [2] amounted to 2.2 µM. The “tubulin polymerization activity with detergent” value in series [3] (0.01% Triton-X treatment) is listed as “not affected”. Further, the “Maximum absorbance (A340, 10% DMSO)” value in series [3] (mammalian tubulin) stood at 0.4. The “activity against Trypanosoma brucei (in words)” value in series [4] is reported as “nanomolar-range cytocidal potency; also recorded: broad activity; also recorded: nanomolar concentrations”.
